Assay results from PMC7691401, “^68Ga, ^44Sc and ^177Lu-labeled AAZTA^5-PSMA-617: synthesis, radiolabeling, stability and cell binding compared to DOTA-PSMA-617 analogues” (EJNMMI Radiopharmacy and Chemistry, 2020).
Where two headings read alike, the source gives them in different places.

What was measured:
[1] = tested on: PSMA-positive LNCaP cells; test: Internalization studies in LNCaP cells; assay type: cell-based, human; settings: for specific internalization or cell surface binding: PSMA-positive LNCaP cells
Protocol: (§1) The in vitro experiments were performed using the PSMA-positive LNCaP cell line (androgen-sensitive human lymph node metastatic lesion of prostatic adenocarcinoma, CRL-1740 [American Type Culture Collection]) (Benešová et al. [2015]). For negative control, PSMA-PC3 cells (bone metastasis of a grade IV prostatic adenocarcinoma, ATCC CRL-1435) were used (Eder et al. [2012a]). The cells were cultured in RPMI1640 medium supplemented with 10% fetal calf serum and L-glutamine and incubated at 37 °C in an environment of humidified air containing 5% CO2. The cells were harvested using trypsin-ethylenediaminetetraacetic acid (trypsin-EDTA; 0.05% trypsin, 0.02% EDTA, all from PAN Biotech).
For internalization studies 10^5 LNCaP or PC3 cells were seeded in poly(L-lysine)-coated 24-well cell culture plates at 37 °C in an environment of humidified air containing 5% CO2 for 24 h. (Mier et al. [2007]). The medium is removed and 250 μl of radiolabeled 30 nM AAZTA^5-PSMA is replaced for 45 min. One plate is being incubated at 37 °C and the second one at 4 °C to inhibit the internalization. The specificity of the ligands is proofed by addition 500 μM of 2-(phosphonomethyl)-pentanedioic acid (2-PMPA, Axxora, Loerrach, Germany). After incubation, the cells were washed three times with 1 ml ice cold PBS. To determine the surface-bound activity cells were incubated twice with 0.5 ml of glycine-HCl in PBS (50 mM, pH 2.8) each for 5 min at room temperature. Both washing steps were collected for measuring with a gamma counter (Packard Cobra II, GMI, Minnesota, USA). Before lysating the cells with 0.5 mL of 0.3 M NaOH to determine the internalized fraction, they were once washed with 1 ml ice cold PBS (Eder et al. [2012a]).

[2] = target: T1, PSMA (Homo sapiens, UniProt Q04609); settings: LNCaP cells, read-out: Ki ± SD, cited from earlier work
T1 construct: 10^5 LNCaP cells per well were incubated with 0.75 nM [^68Ga]Ga-PSMA-10; host or cells: LNCaP

[3] = tested on: PSMA-positive LNCaP cells; settings: cited from earlier work
[4] = parameters: method as in Sinnes et al. [2019]; settings: HS, ref Sinnes et al. [2019], in % (unit assumed), cited from earlier work
[5] = parameters: method as in Sinnes et al. [2019]; settings: PBS, ref Sinnes et al. [2019], in % (unit assumed), cited from earlier work
[6] = parameters: method as in Sinnes et al. [2019]; settings: ref Sinnes et al. [2019], in % (unit assumed), cited from earlier work
[7] = tested on: PC3 cells; test: Internalization studies in PC3 cells (negative control); assay type: cell-based, human; settings: PSMA-negative PC3 cells
Protocol: as §1
For internalization studies 10^5 LNCaP or PC3 cells were seeded in poly(L-lysine)-coated 24-well cell culture plates at 37 °C in an environment of humidified air containing 5% CO2 for 24 h. (Mier et al. [2007]). The medium is removed and 250 μl of radiolabeled 30 nM AAZTA^5-PSMA is replaced for 45 min. One plate is being incubated at 37 °C and the second one at 4 °C to inhibit the internalization. The specificity of the ligands is proofed by addition 500 μM of 2-(phosphonomethyl)-pentanedioic acid (2-PMPA, Axxora, Loerrach, Germany). After incubation, the cells were washed three times with 1 ml ice cold PBS. […]

[8] = LNCaP cells, ref Benešová et al. [2015]

T1 sequence (Q04609 whole entry): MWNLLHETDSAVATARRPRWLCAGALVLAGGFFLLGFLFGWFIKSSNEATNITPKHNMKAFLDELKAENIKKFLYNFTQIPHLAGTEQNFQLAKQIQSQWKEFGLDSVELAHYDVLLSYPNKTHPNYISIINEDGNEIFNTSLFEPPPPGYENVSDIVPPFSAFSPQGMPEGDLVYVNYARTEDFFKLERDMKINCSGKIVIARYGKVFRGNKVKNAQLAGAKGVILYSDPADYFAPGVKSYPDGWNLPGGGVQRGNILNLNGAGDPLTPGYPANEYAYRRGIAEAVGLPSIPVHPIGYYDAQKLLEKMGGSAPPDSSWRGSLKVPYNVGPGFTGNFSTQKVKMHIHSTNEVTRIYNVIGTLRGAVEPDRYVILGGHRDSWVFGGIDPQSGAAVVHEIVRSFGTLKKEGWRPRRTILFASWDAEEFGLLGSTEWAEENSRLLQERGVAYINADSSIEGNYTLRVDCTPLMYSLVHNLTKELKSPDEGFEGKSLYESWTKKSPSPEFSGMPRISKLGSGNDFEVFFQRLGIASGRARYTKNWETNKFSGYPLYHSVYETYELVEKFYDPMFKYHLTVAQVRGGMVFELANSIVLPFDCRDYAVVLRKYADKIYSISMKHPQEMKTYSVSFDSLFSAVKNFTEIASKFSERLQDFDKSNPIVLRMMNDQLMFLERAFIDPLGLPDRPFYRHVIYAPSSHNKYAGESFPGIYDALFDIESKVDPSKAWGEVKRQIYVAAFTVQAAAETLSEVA

For O=C(O)CCC(NC(=O)NC(CCCCNC(=O)C(Cc1ccc2ccccc2c1)NC(=O)C1CCC(CNC(=O)CN2CCN(CC(=O)O)CCN(CC(=O)O)CCN(CC(=O)O)CC2)CC1)C(=O)O)C(=O)O.[Lu+3] (stereo not drawn) [[^nat/177Lu]Lu-PSMA-617], the “%internalization / total cellular activity ratio” value ([1]; LNCaP cells, 37 °C, surface versus internalized activity, this assay) is given as 27%, the Ki ([2]; ref Benešová et al. [2015]) is given as 6.9 ± 1.3 nM and the “Internalization ± SD” value [3, 8] is given as 17.5 ± 3.1 %IA/10^6 cells. For the same compound, the “%internalization / total cellular activity ratio” value ([3]; ref Umbricht et al. [2017]) was 10–15%.
In the case of O=C([O-])CN(CCN(CC(=O)[O-])Cc1cc(CCC(=O)NCCCCCC(=O)NCCCC[C@H](NC(=O)N[C@@H](CCC(=O)O)C(=O)O)C(=O)O)ccc1[O-])Cc1cc(CCC(=O)O)ccc1[O-].[68Ga+3].[OH3+] [[^nat/68Ga]Ga-PSMA-11], the Ki ([2]; ref Eder et al. [2012a]) is listed as 12 ± 2.8 nM and the “Internalization ± SD” value [3, 8] is listed as 9.5 ± 2.6 %IA/10^6 cells.
For O=C(O)CCCCC1(N(CC(=O)O)CC(=O)O)CN(CC(=O)O)CCN(CC(=O)O)C1.[68Ga+3] [[^68Ga]Ga-AAZTA^5], the Stability values ([4]; 0.5 h) is given as 93.0 ± 0.8, the Stability values ([4]; 1 h) is given as 92.7 ± 1.3 and the Stability values ([4]; 2 h) is given as 85.3 ± 3.4. The Stability values ([5]; 0.5 h) was 97.5 ± 1.0, the Stability values ([5]; 1 h) was 88.7 ± 0.5 and the Stability values ([5]; 2 h) was 78.5 ± 4.5. The Stability values ([6]; DTPA, 0.5 h) was 84.3 ± 0.9, the Stability values ([6]; DTPA, 1 h) was 78.0 ± 1.4 and the Stability values ([6]; DTPA, 2 h) was 45.7 ± 1.3. For the same compound, the Stability values ([6]; EDTA, 0.5 h) was 93.0 ± 0.2, the Stability values ([6]; EDTA, 1 h) was 50.3 ± 7.4 and the Stability values ([6]; EDTA, 2 h) was 49.5 ± 2.5.
For O=C(O)CCCCC1(N(CC(=O)O)CC(=O)O)CN(CC(=O)O)CCN(CC(=O)O)C1.[177Lu+3] [^177Lu AAZTA^5], the “specific internalization or cell surface binding” value [1] is given as “no surface activity or internalization”, the “specific internalization or cell surface binding” value [7] is given as “no surface activity or internalization” and the Stability values ([4]; 1 h) is given as 99.8 ± 0.1. For the same compound, the Stability values ([4]; 2 h) was 99.7 ± 0.1, the Stability values ([4]; 24 h) was 99.9 ± 0.1 and the Stability values ([4]; 7 d) was 82.5 ± 3.2. For the same compound, the Stability values ([5]; 1 h) was 97.8 ± 0.5, the Stability values ([5]; 2 h) was 98.6 ± 0.4 and the Stability values ([5]; 24 h) was 99.1 ± 0.6. The Stability values ([5]; 7 d) was 96.0 ± 0.8, the Stability values ([6]; DTPA, 1 h) was 99.1 ± 0.2 and the Stability values ([6]; DTPA, 2 h) was 99.1 ± 0.1. For the same compound, the Stability values ([6]; DTPA, 24 h) was 80.4 ± 5.4, the Stability values ([6]; DTPA, 7 d) was 59.0 ± 14.3 and the Stability values ([6]; EDTA, 1 h) was 98.9 ± 0.2. The Stability values ([6]; EDTA, 2 h) was 97.9 ± 0.3, the Stability values ([6]; EDTA, 24 h) was 79.2 ± 2.9 and the Stability values ([6]; EDTA, 7 d) was 48.9 ± 1.5.
In the case of O=C(O)CCC(NC(=O)NC(CCCCNC(=O)C(Cc1ccc2ccccc2c1)NC(=O)C1CCC(CNC(=O)CN2CCN(CC(=O)O)CCN(CC(=O)O)CCN(CC(=O)O)CC2)CC1)C(=O)O)C(=O)O.[Sc+3] (stereo not drawn) [[^nat/44Sc]Sc-PSMA-617], the Ki ([2]; ref Eppard et al. [2017]) is given as 4.7 ± 0.8 nM and the “Internalization ± SD” value ([3]; LNCaP cells, ref Eppard et al. [2017]) is given as 15.8 ± 2.1 %IA/10^6 cells.
For O=C(O)CCC(NC(=O)NC(CCCCNC(=O)C(Cc1ccc2ccccc2c1)NC(=O)C1CCC(CNC(=O)CN2CCN(CC(=O)O)CCN(CC(=O)O)CCN(CC(=O)O)CC2)CC1)C(=O)O)C(=O)O.[Ga+3] (stereo not drawn) [[^nat/68Ga]Ga-PSMA-617], the Ki ([2]; ref Benešová et al. [2015]) is listed as 6.4 ± 1 nM, the “%internalization / total cellular activity ratio” value [3, 8] is listed as “around 45%” and the “Internalization ± SD” value [3, 8] is listed as 17.7 ± 4.4 %IA/10^6 cells. For the same compound, the “%internalization / total cellular activity ratio” value ([3]; LNCaP cells, ref Benešová et al. [2015], listed as [^68Ga]Ga-DOTA-PSMA-617) was 47%.
In the case of O=C(O)CCCCC1(N(CC(=O)O)CC(=O)O)CN(CC(=O)O)CCN(CC(=O)O)C1.[44Sc+3] [^44Sc AAZTA^5], the “specific internalization or cell surface binding” value [1] is listed as “no surface activity or internalization”, the “specific internalization or cell surface binding” value [7] is listed as “no surface activity or internalization” and the Stability values ([4]; 1 h) is listed as 93.7 ± 0.9. For the same compound, the Stability values ([4]; 4 h) was 94.3 ± 1.7, the Stability values ([4]; 8 h) was 93.2 ± 1.1 and the Stability values ([4]; 24 h) was 91.3 ± 1.8. For the same compound, the Stability values ([5]; 1 h) was 95.3 ± 0.9, the Stability values ([5]; 4 h) was 92.7 ± 1.3 and the Stability values ([5]; 8 h) was 95.9 ± 1.2. For the same compound, the Stability values ([5]; 24 h) was 96.0 ± 0.8, the Stability values ([6]; DTPA, 1 h) was 94.3 ± 0.9 and the Stability values ([6]; DTPA, 4 h) was 92.5 ± 0.5. For the same compound, the Stability values ([6]; DTPA, 8 h) was 93.8 ± 1.2, the Stability values ([6]; DTPA, 24 h) was 93.4 ± 1.1 and the Stability values ([6]; EDTA, 1 h) was 93.7 ± 1.3. For the same compound, the Stability values ([6]; EDTA, 4 h) was 90.0 ± 3.2, the Stability values ([6]; EDTA, 8 h) was 92.3 ± 2.1 and the Stability values ([6]; EDTA, 24 h) was 91.9 ± 1.8.
